Measured values as given in article PMC9019100, “Development of NanoLuc-targeting protein degraders and a universal reporter system to benchmark tag-targeted degradation platforms” (Nature Communications, 2022).
“And” between values parts separate entries of the source, which are not always exact repeats. Identical values can stand only once. Like-named read-outs stand apart in the source and are kept apart here. Peptide text beside a SMILES is read from it. * marks the point of attachment. Cbz = O=C(OCc1ccccc1)*

Biological target: Halo-EGFP-NanoLuc-FKBP^F36V (H-E-N-F) fusion protein (UniProt P0A3G2+P62942+Q9GV45, A155T/A167V/A172T/A224E/A31E/A60N/A81I/C128F/C176G/D78G/E160K/E257K/F37V/F95D/H272N/I117V/K175M/K195N/K70R/L47V/L54V/L88M/L99Q/M102K/N193R/N227D/P142E/P291S/Q151K/Q38R/Q45L/S2A/S58T/T264A/V71I/Y165I/Y273L/Y87F)
Format: cell-based
[1] = 62.5nM, sheet S3B, replicate wells
[2] = 250nM, sheet S3B, replicate wells
[3] = 500nM, sheet S3B, replicate wells
[4] = 1uM, sheet S3B, replicate wells

Halo-EGFP-NanoLuc-FKBP^F36V (H-E-N-F) fusion protein, sequence (Q9GV45 other isoform, or with tags, fused parts or gaps with the stated changes): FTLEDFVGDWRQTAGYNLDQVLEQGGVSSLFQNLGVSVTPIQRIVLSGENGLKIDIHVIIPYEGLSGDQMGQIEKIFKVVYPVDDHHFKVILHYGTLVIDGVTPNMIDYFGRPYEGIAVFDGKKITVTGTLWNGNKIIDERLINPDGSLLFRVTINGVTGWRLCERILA
Halo-EGFP-NanoLuc-FKBP^F36V (H-E-N-F) fusion protein, sequence (P0A3G2 other isoform, or with tags, fused parts or gaps with the stated changes): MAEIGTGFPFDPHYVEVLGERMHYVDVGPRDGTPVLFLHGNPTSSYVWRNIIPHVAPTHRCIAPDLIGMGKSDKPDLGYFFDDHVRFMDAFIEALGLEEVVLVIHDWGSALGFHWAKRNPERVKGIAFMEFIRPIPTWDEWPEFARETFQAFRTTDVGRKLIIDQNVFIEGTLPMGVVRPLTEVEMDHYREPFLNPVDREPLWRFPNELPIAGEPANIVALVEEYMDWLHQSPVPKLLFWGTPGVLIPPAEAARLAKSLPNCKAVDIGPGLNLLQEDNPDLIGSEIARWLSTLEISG
Halo-EGFP-NanoLuc-FKBP^F36V (H-E-N-F) fusion protein, sequence (P62942 whole entry F37V, the tested form may be a part): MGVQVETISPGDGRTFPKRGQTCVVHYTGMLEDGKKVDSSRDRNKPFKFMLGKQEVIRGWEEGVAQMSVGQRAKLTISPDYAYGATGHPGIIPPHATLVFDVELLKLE

Q: What does the source list for `CCc1cccc(N(CC)C(=O)Cn2c(C(=O)NC3CCC(C(=O)NCCCCCCCC(=O)NCCCCNc4cccc5c4C(=O)N(C4CCC(=O)N(C)C4=O)C5=O)CC3)cc3ccccc32)c1` (stereo not drawn) [NC*]?
A: NanoLuc luminescence, Blank corrected (470-80) (62.5nM, 2h, replicate wells): 6632 and 6164 and 5786; NanoLuc luminescence, Blank corrected (470-80) (62.5nM, 4h, replicate wells): 6756 and 7430 and 5962 and 6824; NanoLuc luminescence, Blank corrected (470-80) (62.5nM, 6h, replicate wells): 6820 and 5574 and 6168; NanoLuc luminescence, Blank corrected (470-80) (62.5nM, 8h, replicate wells): 5136 and 5355 and 4609; NanoLuc luminescence, Blank corrected (470-80) (62.5nM, 10h, replicate wells): 4237 and 3067 and 4015; NanoLuc luminescence, Blank corrected (470-80) (250nM, 2h, replicate wells): 1984 and 2219 and 1857; NanoLuc luminescence, Blank corrected (470-80) (250nM, 4h, replicate wells): 1613 and 1684 and 1340; NanoLuc luminescence, Blank corrected (470-80) (250nM, 6h, replicate wells): 1527 and 1526 and 1826 and 1766; NanoLuc luminescence, Blank corrected (470-80) (250nM, 8h, replicate wells): 1602 and 1230 and 1627; NanoLuc luminescence, Blank corrected (470-80) (250nM, 10h, replicate wells): 919 and 829 and 1005; NanoLuc luminescence, Blank corrected (470-80) (500nM, 2h, replicate wells): 1232 and 850 and 1011 and 825; NanoLuc luminescence, Blank corrected (470-80) (500nM, 4h, replicate wells): 934 and 992 and 902; NanoLuc luminescence, Blank corrected (470-80) (500nM, 6h, replicate wells): 854 and 738 and 679 and 842; NanoLuc luminescence, Blank corrected (470-80) (500nM, 8h, replicate wells): 717 and 620 and 849; NanoLuc luminescence, Blank corrected (470-80) (500nM, 10h, replicate wells): 481 and 501 and 461

Q: Which “Blank corrected (470-80)” value [1] does the source give for `O=C1CCC(N2C(=O)c3cccc(OCCOCCCCCCCl)c3C2=O)C(=O)N1` (stereo not drawn) [HC3] here?
A: 383533 and 318115 and 323446 and 301555

Q: And the “Fold Change” value [1]?
A: 27.1169 and 22.4917 and 22.8686 and 21.3208

Q: What about the “Blank corrected (470-80)” value [2] of the same compound?
A: 323125 and 344451 and 351301 and 328848

Q: And the “Fold Change” value [2]?
A: 22.8459 and 24.3537 and 24.838 and 23.2505

Q: What about the “Blank corrected (470-80)” value [3] of the same compound?
A: 366778 and 337071 and 347923 and 313983

Q: And the “Fold Change” value [3]?
A: 25.9323 and 23.8319 and 24.5992 and 22.1995

Q: And the “Blank corrected (470-80)” value [4]?
A: 388451 and 372097 and 370806 and 376397

Q: And the “Fold Change” value [4]?
A: 27.4646 and 26.3084 and 26.2171 and 26.6124

Q: Which results are given for `O=C(COCCOCCCCCCCl)NCCCCNc1cccc2c1C(=O)N(C1CCC(=O)NC1=O)C2=O` (stereo not drawn) [HC2]?
A: Blank corrected (470-80) [1]: 420571 and 387799 and 422451 and 372874; Fold Change [1]: 29.7356 and 27.4185 and 29.8685 and 26.3633; Blank corrected (470-80) [2]: 400261 and 371225 and 406289 and 348754; Fold Change [2]: 28.2996 and 26.2467 and 28.7258 and 24.6579; Blank corrected (470-80) [3]: 327362 and 397295 and 324101 and 372826; Fold Change [3]: 23.1455 and 28.0899 and 22.9149 and 26.3599; Blank corrected (470-80) [4]: 379647 and 379271 and 373688 and 369126; Fold Change [4]: 26.8422 and 26.8156 and 26.4208 and 26.0983

Q: Which “Blank corrected Raw Data (470-80)” value (+dox, MG132 (10uM) alone (DMSO instead of PROTAC)) does the source give for `CC(C)C[C@@H](C=O)NC(=O)[C@H](CC(C)C)NC(=O)[C@H](CC(C)C)NC(=O)OCc1ccccc1` [MG132] (Cbz-Leu-Leu-Leu-aldehyde) here?
A: 83521 and 88764 and 88216 and 91215

Q: And the “Fold Change” value (+dox, MG132 (10uM) alone (DMSO instead of PROTAC), fold of -dox well)?
A: 83.7723 and 89.0311 and 88.4814 and 91.4895
